According to ChEMBL document CHEMBL1147761, “Novel 1,3-dipropyl-8-(1-heteroarylmethyl-1H-pyrazol-4-yl)-xanthine derivatives as high affinity and selective A2B adenosine receptor antagonists” (Bioorg Med Chem Lett, 2006):

Legend:
Adenosine receptor A2b = target: T1, Adenosine receptor A2b (Homo sapiens, UniProt P29275); assay: Displacement of [3H]ZM-241385 from Adenosine A2B receptor expressed in HEK cells; type: cell-based, HEK293
T1 sequence (P29275 whole entry): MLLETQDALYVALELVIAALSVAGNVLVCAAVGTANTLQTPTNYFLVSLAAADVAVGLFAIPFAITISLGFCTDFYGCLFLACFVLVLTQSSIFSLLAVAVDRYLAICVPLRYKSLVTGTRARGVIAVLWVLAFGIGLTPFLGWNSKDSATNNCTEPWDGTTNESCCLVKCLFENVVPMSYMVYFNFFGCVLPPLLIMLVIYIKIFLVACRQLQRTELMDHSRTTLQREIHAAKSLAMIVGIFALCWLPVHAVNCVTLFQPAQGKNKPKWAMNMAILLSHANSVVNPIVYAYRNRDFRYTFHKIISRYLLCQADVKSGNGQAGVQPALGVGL

Adenosine receptor A1 = target: T2, Adenosine receptor A1 (Homo sapiens, UniProt P30542); assay: Displacement of [3H]CPX from Adenosine A1 receptor expressed in CHO cells; type: cell-based
T2 sequence (P30542 whole entry): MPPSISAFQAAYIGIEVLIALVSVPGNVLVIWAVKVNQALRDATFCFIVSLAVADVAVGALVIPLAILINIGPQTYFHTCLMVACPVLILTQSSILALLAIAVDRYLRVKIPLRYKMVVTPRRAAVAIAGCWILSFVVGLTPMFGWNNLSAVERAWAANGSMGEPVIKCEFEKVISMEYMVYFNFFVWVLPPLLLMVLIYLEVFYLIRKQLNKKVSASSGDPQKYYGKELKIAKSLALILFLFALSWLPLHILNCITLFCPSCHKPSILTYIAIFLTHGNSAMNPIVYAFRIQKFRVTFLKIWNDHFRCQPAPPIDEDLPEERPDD

Adenosine receptor A2a = Adenosine receptor A2a (Homo sapiens, UniProt P29274); assay: Displacement of [3H]ZM-241385 from Adenosine A2A receptor expressed in HEK cells; type: cell-based, HEK293
Sequence of Adenosine receptor A2a (P29274 whole entry): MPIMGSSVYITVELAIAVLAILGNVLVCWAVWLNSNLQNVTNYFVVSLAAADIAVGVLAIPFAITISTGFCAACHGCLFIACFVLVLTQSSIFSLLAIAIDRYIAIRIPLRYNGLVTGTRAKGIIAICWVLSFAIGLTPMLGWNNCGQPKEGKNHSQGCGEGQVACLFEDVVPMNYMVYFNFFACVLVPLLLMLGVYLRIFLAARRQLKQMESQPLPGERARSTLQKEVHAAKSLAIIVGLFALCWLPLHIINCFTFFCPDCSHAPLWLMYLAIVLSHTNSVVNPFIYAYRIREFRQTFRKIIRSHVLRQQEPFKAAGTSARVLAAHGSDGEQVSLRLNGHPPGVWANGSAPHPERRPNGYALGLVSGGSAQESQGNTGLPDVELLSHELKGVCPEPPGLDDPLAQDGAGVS

Adenosine receptor A3 = target: T3, Adenosine receptor A3 (Homo sapiens, UniProt P0DMS8); assay: Displacement of [125I]AB-MECA from Adenosine A3 receptor expressed in CHO cells; type: cell-based
T3 sequence (P0DMS8 whole entry): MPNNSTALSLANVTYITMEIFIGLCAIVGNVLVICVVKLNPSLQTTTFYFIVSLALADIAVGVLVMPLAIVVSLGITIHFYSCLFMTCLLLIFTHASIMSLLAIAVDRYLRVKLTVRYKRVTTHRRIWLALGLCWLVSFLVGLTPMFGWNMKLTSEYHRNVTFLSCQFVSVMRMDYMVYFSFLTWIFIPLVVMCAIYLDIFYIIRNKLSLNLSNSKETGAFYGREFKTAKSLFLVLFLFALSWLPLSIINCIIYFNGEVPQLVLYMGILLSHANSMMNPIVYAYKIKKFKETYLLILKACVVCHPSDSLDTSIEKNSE

[1] = target: Adenosine receptors; A1 & A2b (Homo sapiens) (UniProt P30542+P29275); assay: Selectivity of adenosine A1 receptor over adenosine A2B receptor; type: protein assay
[2] = target: Adenosine A2 receptor (Homo sapiens) (UniProt P29275+P29274); assay: Selectivity of adenosine A2A receptor over adenosine A2B receptor; type: protein assay
Sequence of Adenosine A2 receptor (Homo sapiens) (P29274 whole entry, looked up, one chain of several): as the sequence (P29274 whole entry) above

[3] = target: Adenosine receptors; A2b & A3 (Homo sapiens) (UniProt P29275+P0DMS8); assay: Selectivity of adenosine A3 receptor over adenosine A2B receptor; type: protein assay
[4] = Oral bioavailability in rat administered at 1 mg/kg; type: ADME, organism-based; details: in vivo
[5] = AUC in rat administered at 1 mg/kg; type: ADME, organism-based; set-up: dose 1 mg/kg; details: plasma
[6] = Half life in rat administered at 1 mg/kg; type: ADME, organism-based; set-up: dose 1 mg/kg; details: in vivo

SMILES | Ki (Adenosine receptor A2b) [µM] | Ki (Adenosine receptor A1) [µM] | Ki (Adenosine receptor A2a) [µM] | Ki (Adenosine receptor A3) [µM] | Ratio Ki [1] | Ratio Ki [2] | Ratio Ki [3] | bioavailability [4] [%] | AUC [5] [ng·h/mL] | half-life [6] [h]
CCCn1c(=O)c2[nH]c(-c3cnn(Cc4noc(-c5cccc(C(F)(F)F)c5)n4)c3)nc2n(CCC)c1=O | 0.064 | > 6 | > 5 | 1.8 | – | – | – | – | – | –
CCCn1c(=O)c2nc(-c3cnn(Cc4noc(-c5ccccc5OC)n4)c3)[nH]c2n(CCC)c1=O | 0.083 | 0.93 | 3.4 | > 8.3 | 11 | 40 | > 100 | – | – | –
CCCn1c(=O)c2[nH]c(-c3cnn(Cc4noc(-c5ccc(C#N)cc5)n4)c3)nc2n(CCC)c1=O | 0.014 | 0.57 | > 5 | 0.64 | – | – | – | – | – | –
CCCn1c(=O)c2[nH]c(-c3cnn(Cc4noc(-c5ccccc5Cl)n4)c3)nc2n(CCC)c1=O | 0.038 | 0.63 | 2.5 | 0.33 | – | – | – | – | – | –
CCCn1c(=O)c2[nH]c(-c3cnn(Cc4cc(-c5ccccc5)on4)c3)nc2n(CCC)c1=O | 0.014 | 1.5 | 0.42 | 1.8 | 107 | 30 | 128 | – | – | –
CCCn1c(=O)c2nc(-c3cnn(Cc4cc(-c5cccc(OC)c5)on4)c3)[nH]c2n(CCC)c1=O | 0.131 | 3.5 | > 5 | > 5 | 27 | > 38 | > 38 | – | – | –
CCCn1c(=O)c2nc(-c3cnn(Cc4cc(-c5ccccc5C(F)(F)F)on4)c3)[nH]c2n(CCC)c1=O | 0.121 | 3.7 | > 5 | 4.2 | 30 | > 41 | 34 | – | – | –
CCCn1c(=O)c2[nH]c(-c3cnn(Cc4cc(-c5ccccc5Cl)on4)c3)nc2n(CCC)c1=O | 0.111 | > 6 | 2.7 | 2.3 | – | – | – | – | – | –
CCCn1c(=O)c2[nH]c(-c3cnn(Cc4noc(-c5cccc(OC)c5)n4)c3)nc2n(CCC)c1=O | 0.136 | 0.81 | > 5 | 2 | – | – | – | – | – | –
CCCn1c(=O)c2[nH]c(-c3cnn(Cc4nc(-c5ccccc5OC)no4)c3)nc2n(CCC)c1=O | 0.082 | 1.9 | 1.6 | 0.41 | – | – | – | – | – | –
CCCn1c(=O)c2[nH]c(-c3cnn(Cc4noc(-c5ccccc5)n4)c3)nc2n(CCC)c1=O | 0.021 | 1 | 1.8 | 0.63 | 47 | 85 | 30 | – | – | –
CCCn1c(=O)c2[nH]c(-c3cnn(CC(=O)Nc4ccccc4Cl)c3)nc2n(CCC)c1=O | 0.022 | 0.102 | 1.5 | 1.2 | – | – | – | – | – | –
CCCn1c(=O)c2[nH]c(-c3cnn(Cc4cc(-c5ccccc5OC)on4)c3)nc2n(CCC)c1=O | 0.195 | 3.3 | > 5 | 4.9 | – | – | – | – | – | –
CCCn1c(=O)c2[nH]c(-c3cnn(Cc4cc(-c5ccc(C(F)(F)F)cc5)on4)c3)nc2n(CCC)c1=O | 0.048 | 2.3 | 1.7 | 1.2 | – | – | – | – | – | –
CCCn1c(=O)c2[nH]c(-c3cnn(Cc4cc(-c5ccc(OC)cc5)on4)c3)nc2n(CCC)c1=O | 0.063 | 2 | > 5 | 3 | – | – | – | – | – | –
CCCn1c(=O)c2[nH]c(-c3cnn(Cc4nc(-c5cccc(OC)c5)no4)c3)nc2n(CCC)c1=O | 0.082 | 2.2 | > 5 | 0.6 | – | – | – | – | – | –
CCCn1c(=O)c2[nH]c(-c3cnn(Cc4noc(-c5ccccc5C(F)(F)F)n4)c3)nc2n(CCC)c1=O | 0.1 | 1.9 | > 5 | 0.62 | – | – | – | – | – | –

Second part, the molecule after the results:

Ki (Adenosine receptor A2b) [µM] | Ki (Adenosine receptor A1) [µM] | Ki (Adenosine receptor A2a) [µM] | Ki (Adenosine receptor A3) [µM] | Ratio Ki [1] | Ratio Ki [2] | Ratio Ki [3] | bioavailability [4] [%] | AUC [5] [ng·h/mL] | half-life [6] [h] | SMILES
0.042 | 3.5 | > 5 | 0.96 | 83 | > 119 | 22 | – | – | – | CCCn1c(=O)c2nc(-c3cnn(Cc4nc(-c5cccc(C(F)(F)F)c5)no4)c3)[nH]c2n(CCC)c1=O
0.032 | 0.652 | > 5 | 0.49 | – | – | – | – | – | – | CCCn1c(=O)c2[nH]c(-c3cnn(Cc4nc(-c5cccc(Cl)c5)no4)c3)nc2n(CCC)c1=O
0.106 | 3 | > 5 | 1.5 | 28 | > 47 | 14 | – | – | – | CCCn1c(=O)c2nc(-c3cnn(Cc4nc(-c5ccc(OC)cc5)no4)c3)[nH]c2n(CCC)c1=O
0.074 | 0.53 | > 5 | 0.34 | 7 | > 67 | 4 | – | – | – | CCCn1c(=O)c2nc(-c3cnn(Cc4nc(-c5ccccc5C(F)(F)F)no4)c3)[nH]c2n(CCC)c1=O
0.021 | > 6 | > 5 | 1.3 | > 285 | > 238 | 61 | – | – | – | CCCn1c(=O)c2nc(-c3cnn(Cc4noc(-c5ccc(C(F)(F)F)cc5)n4)c3)[nH]c2n(CCC)c1=O
0.021 | 0.74 | 1.8 | 0.4 | 35 | 85 | 19 | 22 | 2330 | 1.5 | CCCn1c(=O)c2nc(-c3cnn(Cc4nc(-c5ccc(Cl)cc5)no4)c3)[nH]c2n(CCC)c1=O
0.055 | 3.3 | > 5 | 1.3 | – | – | – | – | – | – | CCCn1c(=O)c2[nH]c(-c3cnn(Cc4nc(-c5ccc(C(F)(F)F)cc5)no4)c3)nc2n(CCC)c1=O
0.039 | 2.9 | > 5 | > 8.3 | 74 | > 128 | > 213 | – | – | – | CCCn1c(=O)c2nc(-c3cnn(Cc4noc(-c5ccc(Cl)cc5)n4)c3)[nH]c2n(CCC)c1=O
0.054 | 2.6 | 3 | 8.7 | – | – | – | – | – | – | CCCn1c(=O)c2[nH]c(-c3cnn(Cc4nc(-c5ccc(C)cc5)no4)c3)nc2n(CCC)c1=O
0.019 | 2.5 | 2.5 | 0.49 | 130 | 130 | 25 | – | – | – | CCCn1c(=O)c2nc(-c3cnn(Cc4nc(-c5ccccc5Cl)no4)c3)[nH]c2n(CCC)c1=O
0.001 | 0.37 | 1.1 | 0.48 | 370 | 1100 | 480 | – | – | – | CCCn1c(=O)c2nc(-c3cnn(Cc4nc(-c5ccccc5)no4)c3)[nH]c2n(CCC)c1=O
0.018 | 1.3 | > 5 | 0.95 | – | – | – | – | – | – | CCCn1c(=O)c2[nH]c(-c3cnn(Cc4nc(-c5ccc(C#N)cc5)no4)c3)nc2n(CCC)c1=O
0.082 | 0.54 | 1.2 | 3.3 | – | – | – | – | – | – | CCCn1c(=O)c2[nH]c(-c3cnn(Cc4cc(-c5ccc(Cl)cc5)on4)c3)nc2n(CCC)c1=O
0.163 | 4.6 | > 5 | 4.4 | 28 | > 30 | 27 | – | – | – | CCCn1c(=O)c2nc(-c3cnn(Cc4cc(-c5cccc(Cl)c5)on4)c3)[nH]c2n(CCC)c1=O
0.134 | 3 | > 5 | 3 | 22 | > 37 | 22 | – | – | – | CCCn1c(=O)c2nc(-c3cnn(Cc4noc(-c5cccc(Cl)c5)n4)c3)[nH]c2n(CCC)c1=O
0.123 | 3.9 | > 5 | 2.3 | 32 | > 40 | 19 | – | – | – | CCCn1c(=O)c2nc(-c3cnn(Cc4noc(-c5ccc(OC)cc5)n4)c3)[nH]c2n(CCC)c1=O
0.128 | 1.4 | > 5 | 0.97 | – | – | – | – | – | – | CCCn1c(=O)c2[nH]c(-c3cnn(Cc4nc(-c5cccc(C)c5)no4)c3)nc2n(CCC)c1=O
